Reference: ChEMBL document CHEMBL1909590, “Design, synthesis and docking studies of new quinoline-3-carbohydrazide derivatives as antitubercular agents” (2011)
In brackets after ≈: the same amount, converted by molar mass.

How the values were obtained:
Assay type in all cases: functional
[1] = test system: Mycolicibacterium smegmatis; assay: Antimycobacterial activity against Mycobacterium smegmatis MC2 ATCC 19420 using compound level ranging from 1 to 100 ug/mL after 7 days by resazurin reduction test; conditions: MC2 ATCC 19420, 168 h
[2] = test system: Klebsiella pneumoniae; assay: Antibacterial activity against Klebsiella pneumoniae clinical isolates after 18 to 25 hrs by serial plate dilution method
[3] = test system: Streptococcus pyogenes; assay: Antibacterial activity against Streptococcus pyogenes clinical isolate after 18 to 25 hrs by serial plate dilution method
[4] = test system: Mycobacterium tuberculosis; assay: Antimycobacterial activity against Mycobacterium tuberculosis H37Rv ATCC 27294 using compound level ranging from 1 to 100 ug/mL after 7 days by resazurin reduction test; conditions: H37Rv ATCC 27294, 168 h
[5] = test system: Escherichia coli; assay: Antibacterial activity against Escherichia coli ATCC 25922 after 18 to 25 hrs by serial plate dilution method
[6] = test system: Mycolicibacterium fortuitum; assay: Antimycobacterial activity against Mycobacterium fortuitum ATCC 19542 using compound level ranging from 1 to 100 ug/mL after 7 days by resazurin reduction test; conditions: ATCC 19542, 168 h
[7] = test system: Staphylococcus aureus; assay: Antibacterial activity against Staphylococcus aureus ATCC 25923 after 18 to 25 hrs by serial plate dilution method
[8] = test system: Pseudomonas aeruginosa; assay: Antibacterial activity against Pseudomonas aeruginosa ATCC 27853 after 18 to 25 hrs by serial plate dilution method
[9] = test system: Mycobacterium tuberculosis; assay: Growth inhibition of Mycobacterium tuberculosis H37Rv ATCC 27294 using compound level ranging from 1 to 100 ug/mL after 7 days by resazurin reduction test
[10] = test system: Mycobacterium tuberculosis; assay: Antimycobacterial activity against Mycobacterium tuberculosis H37Rv ATCC 27294 using compound level ranging from 0.3125 to 5 ug/mL after 7 days by resazurin reduction test; conditions: H37Rv ATCC 27294, 168 h
[11] = test system: Mycolicibacterium smegmatis; assay: Antimycobacterial activity against Mycobacterium smegmatis MC2 ATCC 19420 using compound level ranging from 0.3125 to 5 ug/mL after 7 days by resazurin reduction test; conditions: MC2 ATCC 19420, 168 h
[12] = test system: Mycolicibacterium fortuitum; assay: Antimycobacterial activity against Mycobacterium fortuitum ATCC 19542 using compound level ranging from 0.3125 to 5 ug/mL after 7 days by resazurin reduction test; conditions: ATCC 19542, 168 h

| Compound | MIC [1] [µg/mL] | MIC [2] [µg/mL] | MIC [3] [µg/mL] | MIC [4] [µg/mL] | MIC [5] [µg/mL] | MIC [6] [µg/mL] | MIC [7] [µg/mL] | MIC [8] [µg/mL] | growth inhibition (GI) [9] [%] | MIC [10] [µg/mL] | MIC [11] [µg/mL] | MIC [12] [µg/mL] |
| --- | --- | --- | --- | --- | --- | --- | --- | --- | --- | --- | --- | --- |
| COC(=O)Cc1cc(/C=N/NC(=O)c2cnc3c(C(F)(F)F)cccc3c2O)co1 | > 100 | 6.25 (≈ 14.8 µM) | 12.5 (≈ 29.7 µM) | 10 (≈ 23.7 µM) | 3.12 (≈ 7.41 µM) | > 100 | 6.25 (≈ 14.8 µM) | 12.5 (≈ 29.7 µM) | <90 | 5 (≈ 11.9 µM) | – | – |
| NNC(=O)c1ccncc1 [ISONIAZID] | 50 (≈ 365 µM) | – | – | 0.7 (≈ 5.1 µM) | – | 12.5 (≈ 91.1 µM) | – | – | 95 | 0.7 (≈ 5.1 µM) | 50 (≈ 365 µM) | 12.5 (≈ 91.1 µM) |
| O=C(NNC(=S)Nc1cccc(Cl)c1)c1cnc2c(C(F)(F)F)cccc2c1O | 10 (≈ 22.7 µM) | 3.12 (≈ 7.08 µM) | 1.6 (≈ 3.63 µM) | 10 (≈ 22.7 µM) | 3.12 (≈ 7.08 µM) | > 100 | 0.8 (≈ 1.81 µM) | 3.12 (≈ 7.08 µM) | <90 | 2.5 (≈ 5.67 µM) | 2.5 (≈ 5.67 µM) | – |
| Cn1nnc2cc(/C=N\NC(=O)c3cnc4c(C(F)(F)F)cccc4c3O)ccc21 | > 100 | 0.8 (≈ 1.93 µM) | 0.4 (≈ 0.965 µM) | 10 (≈ 24.1 µM) | 0.4 (≈ 0.965 µM) | > 100 | 0.8 (≈ 1.93 µM) | 1.6 (≈ 3.86 µM) | <90 | 5 (≈ 12.1 µM) | – | – |
| CO[C@H]1/C=C/O[C@@]2(C)Oc3c(C)c(O)c4c(O)c(c(/C=N/N5CCN(C)CC5)c(O)c4c3C2=O)NC(=O)/C(C)=C\C=C\[C@H](C)[C@H](O)[C@@H](C)[C@@H](O)[C@@H](C)[C@H](OC(C)=O)[C@@H]1C [RIFAMPIN] | 1.5 (≈ 1.82 µM) | – | – | 0.5 (≈ 0.608 µM) | – | 1.5 (≈ 1.82 µM) | – | – | 95 | 0.5 (≈ 0.608 µM) | 1.5 (≈ 1.82 µM) | 1.5 (≈ 1.82 µM) |
| COc1ccc(/C=N/NC(=O)c2cnc3c(C(F)(F)F)cccc3c2O)cc1O | > 100 | 12.5 (≈ 30.8 µM) | 1.6 (≈ 3.95 µM) | 10 (≈ 24.7 µM) | 12.5 (≈ 30.8 µM) | > 100 | 1.6 (≈ 3.95 µM) | 6.25 (≈ 15.4 µM) | <90 | 10 (≈ 24.7 µM) | – | – |
| COc1ccc(/C=N/NC(=O)c2cnc3c(C(F)(F)F)cccc3c2O)c(F)c1 | 10 (≈ 24.6 µM) | 0.1 (≈ 0.246 µM) | 0.4 (≈ 0.982 µM) | 1 (≈ 2.46 µM) | 0.1 (≈ 0.246 µM) | 10 (≈ 24.6 µM) | 0.8 (≈ 1.96 µM) | 0.4 (≈ 0.982 µM) | 95 | 0.625 (≈ 1.53 µM) | 10 (≈ 24.6 µM) | 10 (≈ 24.6 µM) |
| O=C(N/N=C/c1ccncc1)c1cnc2c(C(F)(F)F)cccc2c1O | > 100 | 6.25 (≈ 17.3 µM) | 12.5 (≈ 34.7 µM) | > 100 | 12.5 (≈ 34.7 µM) | > 100 | 6.25 (≈ 17.3 µM) | 12.5 (≈ 34.7 µM) | 0 | – | – | – |
| Cc1ccc(/C=N/NC(=O)c2cnc3c(C(F)(F)F)cccc3c2O)cc1 | > 100 | 0.8 (≈ 2.14 µM) | 3.12 (≈ 8.36 µM) | 10 (≈ 26.8 µM) | 3.12 (≈ 8.36 µM) | > 100 | 1.6 (≈ 4.29 µM) | 3.12 (≈ 8.36 µM) | <90 | 10 (≈ 26.8 µM) | – | – |
| O=C(NNC(=O)c1cnc2c(C(F)(F)F)cccc2c1O)Nc1cccc(Cl)c1 | > 100 | 0.8 (≈ 1.88 µM) | 0.4 (≈ 0.942 µM) | 10 (≈ 23.5 µM) | 3.12 (≈ 7.35 µM) | > 100 | 0.8 (≈ 1.88 µM) | 1.6 (≈ 3.77 µM) | <90 | 10 (≈ 23.5 µM) | – | – |
| O=C(O)c1cn(C2CC2)c2cc(N3CCNCC3)c(F)cc2c1=O [CIPROFLOXACIN] | – | – | – | – | – | – | 1 (≈ 3.02 µM) | 0.4 (≈ 1.21 µM) | – | – | – | – |
| Cc1ccc(NC(=S)NNC(=O)c2cnc3c(C(F)(F)F)cccc3c2O)cc1 | > 100 | 12.5 (≈ 29.7 µM) | 3.12 (≈ 7.42 µM) | > 100 | 12.5 (≈ 29.7 µM) | > 100 | 1.6 (≈ 3.81 µM) | 6.25 (≈ 14.9 µM) | 0 | – | – | – |
| COc1ccc(NC(=S)NNC(=O)c2cnc3c(C(F)(F)F)cccc3c2O)cc1 | > 100 | 3.12 (≈ 7.15 µM) | 0.8 (≈ 1.83 µM) | 10 (≈ 22.9 µM) | 6.25 (≈ 14.3 µM) | > 100 | 1.6 (≈ 3.67 µM) | 1.6 (≈ 3.67 µM) | <90 | 5 (≈ 11.5 µM) | – | – |
| O=C(NNC(=S)Nc1cccnc1)c1cnc2c(C(F)(F)F)cccc2c1O | > 100 | 6.25 (≈ 15.3 µM) | 12.5 (≈ 30.7 µM) | > 100 | 3.12 (≈ 7.66 µM) | > 100 | 6.25 (≈ 15.3 µM) | 12.5 (≈ 30.7 µM) | 0 | – | – | – |
| CCc1ccc(NC(=O)NNC(=O)c2cnc3c(C(F)(F)F)cccc3c2O)cc1 | > 100 | 6.25 (≈ 14.9 µM) | 12.5 (≈ 29.9 µM) | 10 (≈ 23.9 µM) | 3.12 (≈ 7.46 µM) | > 100 | 6.25 (≈ 14.9 µM) | 12.5 (≈ 29.9 µM) | <90 | 12.5 (≈ 29.9 µM) | – | – |
| O=C(N/N=C/c1ccc2c(c1)CCO2)c1cnc2c(C(F)(F)F)cccc2c1O | > 100 | 6.25 (≈ 15.6 µM) | 3.12 (≈ 7.77 µM) | > 100 | 12.5 (≈ 31.1 µM) | > 100 | 1.6 (≈ 3.99 µM) | 3.12 (≈ 7.77 µM) | 0 | – | – | – |
| CSc1ccccc1/C=N/NC(=O)c1cnc2c(C(F)(F)F)cccc2c1O | > 100 | 3.12 (≈ 7.7 µM) | 3.12 (≈ 7.7 µM) | > 100 | 6.25 (≈ 15.4 µM) | > 100 | 1.6 (≈ 3.95 µM) | 3.12 (≈ 7.7 µM) | 0 | – | – | – |
| O=C(N/N=C/c1ccc(OC(F)(F)C(F)F)cc1)c1cnc2c(C(F)(F)F)cccc2c1O | 10 (≈ 21 µM) | 3.12 (≈ 6.56 µM) | 12.5 (≈ 26.3 µM) | 10 (≈ 21 µM) | 6.25 (≈ 13.1 µM) | > 100 | 3.12 (≈ 6.56 µM) | 6.25 (≈ 13.1 µM) | <90 | 5 (≈ 10.5 µM) | 10 (≈ 21 µM) | – |
| O=C(N/N=C/c1cnc[nH]1)c1cnc2c(C(F)(F)F)cccc2c1O | > 1000 | 0.4 (≈ 1.15 µM) | 0.4 (≈ 1.15 µM) | 1 (≈ 2.86 µM) | 0.2 (≈ 0.573 µM) | 10 (≈ 28.6 µM) | 0.8 (≈ 2.29 µM) | 0.8 (≈ 2.29 µM) | 90 | 1.25 (≈ 3.58 µM) | – | 10 (≈ 28.6 µM) |
| Cc1cc(C)cc(NC(=O)NNC(=O)c2cnc3c(C(F)(F)F)cccc3c2O)c1 | > 100 | 3.12 (≈ 7.46 µM) | 1.6 (≈ 3.82 µM) | 10 (≈ 23.9 µM) | 3.12 (≈ 7.46 µM) | > 100 | 0.8 (≈ 1.91 µM) | 3.12 (≈ 7.46 µM) | <90 | 2.5 (≈ 5.98 µM) | – | – |
